Source: article PMC3835791, “Non-Invasive Imaging of Tumors by Monitoring Autotaxin Activity Using an Enzyme-Activated Near-Infrared Fluorogenic Substrate” (PLoS ONE, 2013)

What was measured:
[1] = system: MDA-MB-231 orthotopic tumor (ATX activity); test: In vivo NIRF imaging and ex vivo tissue analysis of mice with orthotopic tumors
Text: Animal studies were approved by the Institutional Animal Care and Use Committee (IACUC) of the University of Utah (protocol numbers 10-10016 and 12-05013). Tumors in mice were established as previously described, [41]. Briefly, approximately ten-week old female nude (Nu/Nu) mice (Charles River Laboratories International, Wilmington, MA) were lightly anesthetized with isoflurane and subcutaneously inoculated with MDA-MB-231 cells in the left thoracic mammary glands. Prior to inoculation, cells were suspended in Extracel to make 5×10^7 cells/mL and each mouse received 0.1 mL of Extracel tumor suspension. To reduce auto-fluorescence arising from the feed, mice were switched to specially formulated diet (2920X, Harlan Laboratories, WI) at least two days prior to imaging.
Six weeks after tumor graft, mice were imaged using AR-2. To visualize tumors, AR-2 was diluted in PBS, filtered through a 0.2 µm porous membrane, and intravenously injected via the lateral vein at 0.5 mg/kg b.w. bolus. The animals were then imaged 48 h after injection with a Pearl Impulse Imager (LI-COR Biosciences, NE) using the 800 nm channel. The fluorescence signals from acquired images were analyzed using Pearl Impulse Software v 2.0 (LI-COR Biosciences) according the manufacturer's protocols. […] ATX-Red dosing, delivery and imaging were unchanged.
Animals were sacrificed, organs were dissected and weighed, then ex vivo fluorescence was imaged and quantified as previously described. Tumors were immediately frozen until further use. Thawed tumors were homogenized in ice cold buffer containing 10 mM Tris pH 7.4, 200 mM NaCl, 10% glycerin, 5 mM EDTA and 1× Halt protease inhibitor cocktail (Thermo Scientific, Rockford, Il.) at a ratio of 40 mg tumor to 1 mL buffer. Samples were centrifuged at 14,000× g at 4°C. ATX levels were determined by diluting supernatants ten times in RD5-10 and assayed using a Human ENPP-2/Autotaxin ELISA (R&D Systems, Minneapolis, MN) and an Autotaxin Sandwich ELISA (Echelon Biosciences, Inc., Salt Lake City, UT) using the manufacturers' protocol. Total protein levels were determined by the method of Bradford. Statistical significance was compared using a two-tailed t-test using Prism.

Purified human ATX [2] = target: T1, Purified human ATX (Homo sapiens, UniProt Q13822); test: Michaelis constant of fluorogenic ATX substrates; assay type: biochemical; conditions: fluorogenic ATX substrate, rate of fluorescence increase at varying substrate concentrations
T1 construct: purchased Echelon Biosciences, Inc. (Salt Lake City, UT)
Protocol: (§1) AR-2 (100 nM) was incubated with the indicated enzyme in buffer containing 50 mM Tris-Cl pH 8.0, 5 mM KCl, 1 mM CaCl2, 1 mM MgCl2, 140 mM NaCl, and 1 mg/mL fatty acid free bovine serum albumin. Reactions were immediately placed in a Spectramax M2 plate reader (Molecular Devices, Sunnyvale, CA) set at 37°C, monitoring fluorescence exciting at 750 nm and emitting at 805 nm over time. Unless otherwise stated, all reactions used 10 nM enzyme, except alkaline phosphatase, which was performed at 0.1 unit/µL.
(§2) The Michaelis constant (Km) was determined for each compound by measuring the rate of fluorescence increase at varying substrate concentrations using Prism to fit to the Michaelis-Menton equation. Inner filter effects were overcome using previously described methods. The inhibition constant (Ki) for each set of reactions was determined from the IC50 following standard methods.

[3] = target: T2, ATX in media from COS-7 cells (Homo sapiens, UniProt Q13822); test: AR-2 activation by media from COS-7 cells transfected with ATX-encoding plasmid; assay type: cell-based; conditions: AR-2 1 µM
T2 construct: expressed in transfected cells; host or cells: COS-7
Protocol: COS-7 cells grown in Dulbecco's Modified Eagle Medium (DMEM) supplemented with 10% FBS and penicillin/streptomycin were transfected with human β ATX cDNA inserted into pcDNA DEST40 (Invitrogen, CA) or mock plasmid in DMEM without FBS using TransIT®-2020 transfection reagent (Mirus Bio, WI) according to the manufacturer's protocol.
(§3) Equal volumes of cell media (COS-7) or conditioned media (MDA-MB-231 or MDA-MB 435) were mixed with buffer to achieve a final concentration of AR-2 (1 µM). All other conditions were as described for purified enzymes.

human ATX = target: T3, human ATX (Homo sapiens, UniProt Q13822); test: AR-2 reactions with purified enzymes: human ATX; assay type: biochemical; conditions: AR-2 100 nM, 10 nM enzyme
T3 construct: purchased Echelon Biosciences, Inc. (Salt Lake City, UT)
Protocol: as §1

[4] = Pharmacokinetics of AR-2 in plasma after intravenous dosing; assay type: in vivo, mice
Protocol: To investigate preliminary PK of AR-2, female BALB/c mice aged 8–10 wks old (Charles River Laboratories, MA) were used. The animals were allowed to acclimatize to housing at least one week prior to use. At day 0, AR-2 was administered as a single bolus injection through lateral tail vein at a dosage of 1.0 mg/kg b.w. The animals were then lightly anesthetized with isoflurane for blood collection at 0, 0.08, 0.25, 0.5, 1, 2, 4, 6, 24, and 48 h after AR-2 administration. Blood samples were collected in EDTA coated tubes by submandibular bleeding or caudal vena cava (at time of sacrifice) with the maximum number of two blood collections from each animal. The collected blood samples were centrifuged, and the plasma was stored at −20°C until analysis.
To determine the concentration of AR-2 in plasma, samples were prepared according to the following procedures. Plasma samples were mixed with nine volumes of tert-butanol∶water (7∶1) then centrifuged at 14,000× g to pellet precipitated proteins. The resulting supernatant was frozen and lyophilized. Samples were then reconstituted in cold PBS and subjected to HPLC analysis using a C18 column (Waters, Milford, MA) with a gradient of 5–60% acetonitrile in 50 mM triethylammonium acetate (pH 6.0). Peaks with absorbance at 778 nm were integrated and compared to mouse plasma samples containing known concentrations of AR-2. The resulting AR-2 concentration versus time data were plotted and fitted with a sum of two exponentials to calculate plasma half-life (t1/2) and various pharmacokinetic parameters using the PK package in R Statistics (version 2.15.1).

[5] = system: human NPP1, human and mouse NPP7, shrimp alkaline phosphatase, human LPLA2 and human INPP4A; test: AR-2 reactions with purified enzymes homologous to ATX (selectivity panel); assay type: biochemical; conditions: AR-2 100 nM, 10 nM enzyme (alkaline phosphatase 0.1 unit/µL), versus buffer control
Protocol: as §1

mouse ATX = target: T4, mouse ATX (Mus musculus, UniProt Q9R1E6); test: AR-2 reactions with purified enzymes: mouse ATX; assay type: biochemical; conditions: AR-2 100 nM, 10 nM enzyme
T4 construct: purchased R&D Systems (Minneapolis, MN)
Protocol: as §1

[6] = target: T5, ATX in conditioned media from MDA-MB-435 and MDA-MB-231 cells (Homo sapiens, UniProt Q13822); test: AR-2 activation by conditioned media from cancer cells overexpressing ATX, with and without PF-8380; assay type: cell-based; conditions: PF-8380 1 µM, conditioned media from MDA-MB-435 or MDA-MB-231 cells, AR-2 1 µM
T5 construct: host or cells: MDA-MB-231 and MDA-MB-435 (conditioned media concentrated about 40-fold)
Protocol: MDA-MB-231 and MDA-MB-435 cells were grown to 80% confluence in Roswell Park Memorial Institute (RPMI) medium supplemented with 10% FBS. Cells were rinsed twice with PBS and grown for approximately 60 h in RPMI supplemented with 1% FBS. Media were centrifuged at 1000× g for 1 min to collect cells. Conditioned media was prepared by concentrating the supernatant ∼40-fold using Amicon Ultra YM30 (Millipore, Billerica, MA).
as §3

Purified human ATX [7] = target: T1, Purified human ATX; test: Evaluation of ATX inhibition with fluorogenic substrates (AR-2 or FS-3); assay type: biochemical; conditions: human ATX 2 nM, 37°C, Ki determined from the IC50
Protocol: DMSO was spiked into each reaction mixture to equalize vehicle concentrations. Purified human ATX (2 nM final concentration) was mixed with varying concentrations of inhibitor at 37°C for 10 min, then AR-2 or FS-3 was added to a final concentration of 1 µM. The rates of fluorescence increase were measured for up to 2 h. The initial velocity of fluorescence increase was determined and normalized to control reactions. The IC50 of each compound was calculated by fitting a standard curve using a sigmoidal dose-response (variable slope) nonlinear regression curve using GraphPad Prism (version 5.03).
as §2

[8] = MDA-MB-231 xenografts, 48 h after AR-2 dosing, ex vivo

CC1(C)C(/C=C/C2=C(Oc3ccc(S(=O)(=O)O)cc3)C(=C/C=C3/N(CCCCS(=O)(=O)O)c4ccc(S(=O)(=O)[O-])cc4C3(C)C)/CCC2)=[N+](CCCCCC(=O)NCCCCCC(=O)OC[C@@H](O)COP(=O)(O)OCCNC(=O)CCOCCOCCOCCOCCNC(=O)CCCCCN2/C(=C/C=C3\CCCC(/C=C/C4=[N+](CCCS(=O)(=O)O)c5ccc(N(CCCS(=O)(=O)O)CCCS(=O)(=O)O)cc5C4(C)C)=C3Cl)C(C)(C)c3c2ccc2cc(S(=O)(=O)[O-])ccc32)c2ccc(S(=O)(=O)O)cc21 [AR-2]
NIRF signal in excised tumors compared to most other organs [1, 8]: strongly elevated | NIRF signal in kidneys and liver [1, 8]: Moderate signals | NIRF signal in stomach [1, 8]: Modest fluorescence | Km (Purified human ATX [2]): 0.66 ± 0.05 µM | activation of AR-2 by media from ATX-transfected versus mock-transfected COS-7 cells [3]: media from ATX-transfected, but not mock-transfected, cells activated AR-2 | activation of AR-2 fluorescence by human ATX (human ATX): activated AR-2 with similar efficiencies | apparent volume of distribution (Vd) in 20 g mouse ([4]; 20 g mouse): 8.6 mL | fraction of AR-2 eliminated ([4]; 42 h after dosing (5 half-lives)): approximately 97% | half-life of first phase of bi-exponential plasma decrease ([4]; BALB/c mice, 1.0 mg/kg i.v. bolus, bi-exponential fit, first phase): 18 min | apparent volume of distribution (Vd) ([4]; mice, i.v.): 432 mL/kg, b.w. | apparent volume of distribution as share of body weight ([4]; mice, i.v.): ~43 % of body weight | activation of AR-2 fluorescence by related enzymes [5]: none of the related enzymes tested generated a fluorescence response above buffer control | activation of AR-2 fluorescence by mouse ATX (mouse ATX): activated AR-2 with similar efficiencies

O=C(CCN1CCN(C(=O)OCc2cc(Cl)cc(Cl)c2)CC1)c1ccc2[nH]c(=O)oc2c1 [PF-8380, reference compound]
AR-2 fluorescence signals in excised tumors normalized to protein, inhibitor-treated versus vehicle-treated mice ([1]; PF-8380 30 mg/kg single oral gavage 20 min prior to AR-2 injection, MDA-MB-231 tumors, P<0.001): significantly reduced | rate of AR-2 fluorescence signal generation in conditioned media with inhibitor [6]: dramatically reduced

CCCCCCCCCCCCCC(=O)Nc1ccc(CP(=O)(O)O)cc1 [S32826]
Ki (Purified human ATX [7]; ATX substrate AR-2 (1 µM)): 1.6 ± 1.9 nM | Ki (Purified human ATX [7]; ATX substrate FS-3 (1 µM)): 5.5 ± 3.3 nM
